Assay results taken from patent US20240335464A1, “ADMINISTRATION OF STING AGONIST, CHECKPOINT INHIBITORS, AND RADIATION” (Takeda Pharmaceutical Company Limited, priority 2020, published 2024).

Assays:
[1] = test system: CT26 murine colorectal carcinoma tumor; assay: Study 4: CT26 subcutaneous tumor model, anti-tumor efficacy; assay type: in vivo, female Balb/c mice; details: for GRI (%) Day 11: vs vehicle
Procedure: Study 4: CT26 is a murine colorectal carcinoma cell line. Eight-week-old female Balb/c mice (Jackson Labs, Maine) were inoculated subcutaneously with 0.2×10^6 CT26 tumor cells and monitored for tumor growth. Once the tumors reached an average of 100-125 mm^3, animals were irradiated with either mock irradiation or 8 Gy of focal beam irradiation (Study Day 0). Animals were then dosed intravenously with either vehicle (PBS) or 0.25 mg/kg of Compound No. 14 on a QW×3 schedule beginning on Study Day 1. Anti-mPD-1 antibody (clone RMP1-14, BioXCell) treatment was administered intraperitoneally twice weekly starting on Study Day 1 with a concentration of 10 mg/kg for 3 weeks. Animals were monitored for tumor volumes and body weight changes twice weekly throughout the study once they reached their humane endpoint. GRI was calculated on the last day with animals remaining in the vehicle group (Study Day 11).
(§1) Study 4: A 5 mg/mL stock solution of Compound No. 14 was formulated in PBS at the final concentration of 0.0667 mg/mL and administered intravenously (IV). Final doses received were 0.25 mg/kg. […] Compound No. 14 was administered on a QW schedule for 3 doses in single agent treatment group and in combination treatment groups beginning on Day 1. Dose formulation of Compound No. 14 was prepared once and utilized for dosing on each treatment day.
Anti-mPD-1 or isotype control was administered concurrent with Compound No. 14 or vehicle control on a BIW schedule for 3 doses in single agent treatment groups and in combination treatment groups.
(§2) Studies 4 and 5: Radiation treatment for Studies 4 and 5 were performed using focal beam radiation with volumentric image guidance from computer tomography scans on the SmART (Small animal image-guided radiotherapy) platform (Precision XRay Inc., North Branford, CT). Animals received 4.52 Gy/min of radiation and approximately 1.8 min was needed to reach 8 Gy dose delivery (Study 4) or […] was needed to reach 16 Gy dose delivery (Study 5). Animals were anesthetized during imaging and radiation treatment using 1-2% isoflurane.
(§3) Growth Rate Inhibition: The differences in the tumor growth trends over time between pairs of treatment groups were assessed by fitting each animal's data to a simple exponential growth model and comparing the mean growth rates of the two groups, as described in more detail below. The difference in the growth rates was summarized by the GRI, which is the reduction in growth rate experienced by the treatment group relative to that of the reference group, expressed as a fraction of the vehicle growth rate.
(§4) μT and μC are the mean tumor growth rates for the treatment and reference groups, respectively. μV is the mean tumor growth rate for the vehicle group, which in most cases is the same as the reference group.
(§5) A GRI greater than 100% is interpreted as tumor regression when the vehicle group is the same as the reference group. A negative value of the GRI means that the tumors in the treatment group grew faster than the tumors in the reference group. Statistical significance was determined using an unpaired t-test.
(§6) Tumor Growth Rate Computation: Low tumor volumes can cause problems with the data analysis, so all measurements below 25 cubic mm (including 0 values) were excluded from the analysis. After this exclusion step, the tumor volume was assumed to follow an exponential growth model. More specifically, for a given animal and treatment group,
(§7) where Vi is the tumor volume at the i^th time point. Here, a is the initial log volume, b is the tumor growth rate, and t1 is the measurement time in days. εi is the residual error term, which was assumed to be uncorrelated and drawn from a normal distribution.
This model was fit separately for each animal within each treatment group. If an animal was sacrificed or died early, but at least two unique time points were measured (including baseline), then the data up to that point was used to estimate the growth rate. […]

[2] = test system: B16F10 ova melanoma tumor; assay: Study 5: B16F10-Ova subcutaneous tumor model, anti-tumor efficacy; assay type: in vivo, female C57Bl/6 mice; details: for GRI (%) (Day 10): vs vehicle
Procedure: Study 5: B16F10-Ova is a cell line derived from B16F10 melanoma that expresses chicken ovalbumin. Seven-week-old female C57Bl/6 mice (Jackson Labs, Maine) were inoculated subcutaneously with 0.04×10^6 B16F10 ova tumor cells and monitored for tumor growth. Once the tumors reached an average of 100-250 mm^3, animals were irradiated with either mock irradiation or 16 Gy of focal beam irradiation (Study Day 0). Animals were then dosed intravenously with either vehicle (PBS) or 0.25 mg/kg of Compound No. 14 on a Q3Dx3 scheduled beginning on Study Day 1. Animals were monitored for tumor volumes and body weight changes twice weekly throughout the study once they reached their humane endpoint. GRI was calculated on the last day with animals remaining in the vehicle group (Study Day 10).
as §1, with “5:” for “4:”, “Q3D” for “QW”
as §2, §3, §4, §5, §6, §7
This model was fit separately for each animal within each treatment group. If an animal was sacrificed or died early, but at least two unique time points were measured (including baseline), then the data up to that point was used to estimate the growth rate. If the animal had measurements at less than two time points, then the animal was automatically excluded from the analysis.
In rare cases, the estimated growth rate for one or more animals might be very different from the other animals within the same group. […]

[3] = TG02 Compound No. 14 0.25 mg/kg QWx3 IV, single agent
[4] = TG05 Compound No.14 0.25 mg/kg QWx3 IV + Radiation 8 Gy, through Day 11
[5] = TG02 Compound No.14 0.25 mg/kg Q3Dx3 IV, single agent
[6] = TG04 Compound No.14 0.25 mg/kg Q3Dx3 IV + radiation 16 Gy, through Day 10

Nc1ncnc2c1ncn2[C@@H]1O[C@@H]2COP(=O)(S)O[C@@H]3[C@H](O)[C@@H](COP(=O)(S)O[C@H]2[C@H]1F)O[C@H]3n1cc(F)c2c(=O)[nH]cnc21 (stereo partly drawn) [Compound No. 14]
Number of Animals Removed [1, 3]: 0
GRI (%) Day 11 [1, 3]: 13%
Number of Animals Removed ([1]; TG05 Compound No. 14 0.25 mg/kg QWx3 IV + Radiation 8 Gy): 0
GRI (%) Day 11 ([1]; TG05 Compound No. 14 0.25 mg/kg QWx3 IV + Radiation 8 Gy (Day 0)): 88%
Combination Assessment [1, 4]: Additive
Synergy Score % [1, 4]: −12%
Number of Animals Removed [2, 5]: 4
GRI (%) (Day 10) [2, 5]: 11%
Number of Animals Removed ([2]; TG04 Compound No.14 0.25 mg/kg Q3Dx3 IV + radiation 16 Gy): 0
GRI (%) (Day 10) ([2]; TG04 Compound No.14 0.25 mg/kg Q3Dx3 IV + radiation 16 Gy (Day 0)): 67%
Combination Assessment [2, 6]: Additive
Synergy Score % [2, 6]: −21%
